Columns and labels:
FAAH = FAAH (Mus musculus (Mouse), UniProt O08914); experiment: In vitro competitive activity-based protein profiling, FAAH (mouse); assay type: biochemical; details: for inhibition at 1 µM: read-out: FAAH % inh. 1 μM (mouse)
Method: (§1) In Vitro Competitive Activity-Based Protein Profiling.
(§2) Proteomes (mouse brain membrane fraction or cell lysates for mouse assays; human prefrontal cortex or cell membrane fractions for human assays) (50 μL, 1.0 mg/mL total protein concentration) were preincubated with varying concentrations of inhibitors at 37° C. After 30 min, FP—Rh or HT-01 (1.0 μL, 50 μM in DMSO) was added and the mixture was incubated for another 30 min at 37° C. Reactions were quenched with SDS loading buffer (15 μL-4×) and run on SDS-PAGE. Following gel imaging, serine hydrolase activity was determined by measuring fluorescent intensity of gel bands corresponding to MAGL and FAAH using ImageJ 1.43u software.

MAGL = MAGL (Mus musculus (Mouse), UniProt O35678); experiment: In vitro competitive activity-based protein profiling, MAGL (mouse); assay type: biochemical; details: for inhibition at 1 µM: read-out: MAGL % inh. 1 μM (mouse)
Method: as §1, §2

MAGL, sequence (O35678 whole entry): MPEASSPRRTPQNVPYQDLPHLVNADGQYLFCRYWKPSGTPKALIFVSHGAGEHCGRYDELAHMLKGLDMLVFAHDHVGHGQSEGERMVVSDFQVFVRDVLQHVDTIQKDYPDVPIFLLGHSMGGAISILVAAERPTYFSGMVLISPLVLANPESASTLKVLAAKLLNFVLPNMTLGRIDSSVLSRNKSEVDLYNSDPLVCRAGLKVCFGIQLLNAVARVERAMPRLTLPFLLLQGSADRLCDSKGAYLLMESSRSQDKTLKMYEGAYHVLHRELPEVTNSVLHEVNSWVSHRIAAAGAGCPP
FAAH, sequence (O08914 whole entry): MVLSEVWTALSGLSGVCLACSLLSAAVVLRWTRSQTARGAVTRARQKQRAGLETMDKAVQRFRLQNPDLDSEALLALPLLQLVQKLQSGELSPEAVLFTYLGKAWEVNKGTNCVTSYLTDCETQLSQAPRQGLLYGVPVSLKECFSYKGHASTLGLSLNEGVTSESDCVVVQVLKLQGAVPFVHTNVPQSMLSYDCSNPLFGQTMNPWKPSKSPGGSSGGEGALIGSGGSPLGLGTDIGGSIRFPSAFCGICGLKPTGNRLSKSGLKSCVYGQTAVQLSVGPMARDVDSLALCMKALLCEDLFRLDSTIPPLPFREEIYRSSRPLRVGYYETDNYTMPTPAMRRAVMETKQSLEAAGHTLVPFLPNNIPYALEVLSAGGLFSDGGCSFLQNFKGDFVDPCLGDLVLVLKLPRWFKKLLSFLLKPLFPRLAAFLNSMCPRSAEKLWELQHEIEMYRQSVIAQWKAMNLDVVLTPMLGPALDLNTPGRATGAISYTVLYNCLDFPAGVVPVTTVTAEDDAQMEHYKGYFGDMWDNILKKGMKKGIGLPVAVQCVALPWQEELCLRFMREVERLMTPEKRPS

Structure (SMILES) | IC50 (FAAH) | inhibition at 1 µM (FAAH) | IC50 (MAGL) | inhibition at 1 µM (MAGL)
CC(=O)N(C)c1cnn(C(=O)N2CCC3(CC2)CN(Cc2ccc(C(F)(F)F)cc2)C3)c1 [Example 26, N-methyl-N-(1-(2-(4-(trifluoromethyl)benzyl)-2,7-diazaspiro[3.5]nonane-7-carbonyl)-1H-pyrazol-4-yl)acetamide] | 100 to 1000 nM | ≥ 75% | ≤ 100 nM | ≥ 75%
CC(=O)N(C)c1cnn(C(=O)N2CC3(CCN(Cc4cccc(Cl)c4)CC3)C2)c1 [Example 85, N-(1-(7-(3-chlorobenzyl)-2,7-diazaspiro[3.5]nonane-2-carbonyl)-1H-pyrazol-4-yl)-N-methylacetamide] | – | ≥ 75% | – | 50 to 75%
CC(=O)N(C)c1cnn(C(=O)N2C[C@H]3C[C@@H](N(C)Cc4ccccc4Cl)C[C@H]3C2)c1 [Example 139, N-(1-(cis-5-((2-chlorobenzyl)(methyl)amino)octahydrocyclopenta[c]pyrrole-2-carbonyl)-1H-pyrazol-4-yl)-N-methylacetamide] | 100 to 1000 nM | ≥ 75% | 1000 to 10000 nM | 25 to 50%
CC(=O)N(C)c1cnn(C(=O)N2CCC3(CCN(Cc4ccccc4Cl)C3)CC2)c1 [Example 186, N-(1-(2-(2-chlorobenzyl)-2,8-diazaspiro[4.5]decane-8-carbonyl)-1H-pyrazol-4-yl)-N-methylacetamide] | 100 to 1000 nM | ≥ 75% | ≤ 100 nM | ≥ 75%
CS(=O)(=O)Nc1cnn(C(=O)N2CCN(Cc3ccc(-c4ccncn4)cc3C(F)(F)F)CC2)c1 [Example 309, N-(1-(4-(4-(pyrimidin-4-yl)-2-(trifluoromethyl)benzyl)piperazine-1-carbonyl)-1H-pyrazol-4-yl)methanesulfonamide] | – | ≥ 75% | – | 25 to 50%
CC(=O)N(C)c1cnn(C(=O)N2CC3CN(Cc4ccc(OC5CCN(C6CC6)CC5)cc4C(F)(F)F)CC3C2)c1 (stereo not drawn) [Example 271, N-(1-(5-(4-((1-cyclopropylpiperidin-4-yl)oxy)-2-(trifluoromethyl)benzyl)octahydropyrrolo [3,4-c]pyrrole-2-carbonyl)-1H-pyrazol-4-yl)-N-methylacetamide] | – | ≥ 75% | – | ≥ 75%
CC(=O)N(C)c1cnn(C(=O)N2C[C@H]3C[C@@H](N(C)Cc4ccc(Cl)cc4)C[C@H]3C2)c1 [Example 143, N-(1-(cis-5-((4-chlorobenzyl)(methyl)amino)octahydrocyclopenta[c]pyrrole-2-carbonyl)-1H-pyrazol-4-yl)-N-methylacetamide] | 100 to 1000 nM | ≥ 75% | 100 to 1000 nM | ≥ 75%
CC(=O)N(C)c1cnn(C(=O)N2CC3(CCN(Cc4ccc(N5CCCC5)cc4)CC3)C2)c1 [Example 19, N-methyl-N-(1-(7-(4-(pyrrolidin-1-yl)benzyl)-2,7-diazaspiro[3.5]nonane-2-carbonyl)-1H-pyrazol-4-yl)acetamide] | – | 25 to 50% | – | 50 to 75%
CC(=O)N(C)c1cnn(C(=O)N2CCC3(CCN(Cc4cc(Cl)ccc4Cl)C3)C2)c1 (racemic) [Example 175, N-(1-(7-(2,5-dichlorobenzyl)-2,7-diazaspiro[4.4]nonane-2-carbonyl)-1H-pyrazol-4-yl)-N-methylacetamide] | ≤ 100 nM | ≥ 75% | 100 to 1000 nM | ≥ 75%
CC(=O)N(C)c1cnn(C(=O)N2CCC3(CCN(Cc4cccc(C(F)(F)F)c4)C3)C2)c1 (single isomer, unassigned) [Example 66, N-methyl-N-(1-(7-(3-(trifluoromethyl)benzyl)-2,7-diazaspiro[4.4]nonane-2-carbonyl)-1H-pyrazol-4-yl)acetamide] | ≤ 100 nM | – | 100 to 1000 nM | –

Reference: patent publication US10323038B2, “Pyrazole compounds and methods of making and using same” (ABIDE THERAPEUTICS, INC., priority 2015, dated 2019)
